Test results as given in patent publication US4940730A, “Angiogenesis enhancer” (Takeda Chemical Industries, Ltd., priority 1987, dated 1990).

Key:
[1] = system: hen's chlorioallantoic membrane; test: CAM (Chorio Allantoic Membrane) assay; format: in vivo; settings: for ED50: amount of drug which gave the numerical value 5 (positive rate) in CAM assay; for Positive rate of CAM assay: average neovascularization score (++=10, +=7, °=3, -=0), 3 days on membrane
Experimental: CAM (Chorio Allantoic Membrane) assay was conducted on various compounds of the present invention. The technique of the CAM assay was that modified somewhat on Auerbach's method [Developmental Biology, 41, 391 (1974)]. More specifically, hen's fertile eggs were incubated for three days at 37° C. (Napco carbon dioxide incubator-6300 was employed, CO2 :0% H2 O saturated). Polypropylene-made discs (6 mm. diameter) were spotted with a chloroform:ethanol (1:4 by volume) solution of each compound so that the concentration may be 0, 0.25, 0.64, 1.6, 4, 10 and 25 ug, respectively. The test materials were air-dried in a clean bench, which were then placed quietly on hen's chlorioallantoic membrane, followed by incubation at 37° C. for further three days. Then, the vascularization state was observed. In the tables, the positive rates were calculated on the following basis. Namely, degrees of neovascularization were determined as ++ for very strong, + for strong, ° for weak and - for negative, and they were numerized as 10, 7, 3 and 0, respectively. The average numerical value in each of the concentrations of the respective samples was made as positive rate. Further, the amount of the drug which gave the numerical value 5 in each sample was shown as ED50 value (ug/disc).

cornea = test: Rat cornea test; format: in vivo, Wister rats; settings: after two weeks; for elongation of blood vessels: rat cornea
Description: Namely, Wister rats (14-week old, male) were anesthetized, then pockets (about 2×3 mm in size) were provided in the cornea. […] The test samples enveloped were erucamide, lauramide and erucic acid, and, as the control, Elvax®-40 in which nothing was enveloped was used.

dorsal air-sack = test: Mouse dorsal air-sack method; format: in vivo, ICR mice; design: key to blood vessel elongation action: +, ++; blood vessel elongation action positive; +, ++; blood vessel elongation action positive; -: blood vessel elongation action negative; settings: ten days later; for blood vessel elongation action: 1 mg test sample enveloped in Elvax-40
Experimental: Experimental work was conducted in accordance with the method of Yoshii et al. [Igaku no ayumi, 122 (No. 10), p. 890 (1982)]. More specifically, ICR mice (9-week old, males) were anesthetized, and the hair at the dorsal site was shaved with clippers. The site was sterilized with alcohol, and an injection needle was inserted at the site located at a distance of 1 cm from the tail side. Through the needle, about 20 ml of air was introduced. Then, the air in the air-sack (on the tail side) was drawn out. Test samples enveloped in Elvax®-40 were inserted into both, left and right, sides (at one of the both sides, only Elvax®-40 as the control). The incised site was closed, and, ten days later, the site was incised again and the state of elongation of blood vessel was observed. The test samples enveloped were erucamide, lauramide and erucic acid, and the results compared with one another.

[2] = amount of sample 0.64 μg per disc
[3] = amount of sample 1.6 μg per disc
[4] = amount of sample 10 μg per disc
[5] = amount of sample 25 μg per disc
[6] = 30 μg test material in Elvax-40 gel in corneal pocket

Structure (SMILES) | ED50 [1] | Positive rate of CAM assay [1, 2] | Positive rate of CAM assay [1, 3] | Positive rate of CAM assay ([1]; amount of sample 4 μg per disc) | Positive rate of CAM assay [1, 4] | Positive rate of CAM assay [1, 5] | Action of elongation of blood vessel (cornea; [6]) | elongation of blood vessels (cornea) | blood vessel elongation action (dorsal air-sack) | blood vessel elongation (dorsal air-sack; mouse dorsal air-sack) | Action of elongation of blood vessel (cornea; 60 μg test material in Elvax-40 gel in corneal pocket)
CCCCCCCC/C=C\CCCCCCCCCCCC(N)=O [Erucamide] | 2.13 ug/disc | 1.4 | 3.4 | 9.4 | 10 | 10 | ++ | strong elongation action | ++ | strong action of blood vessel elongation | 
CCCCCCCC/C=C\CCCCCCCCCCCC(=O)O [Erucic acid] | 4.69 ug/disc | 1.4 | 2.8 | 4 | 8.2 | 9.4 | ++ | strong elongation action |  |  | 
CCCCCCCCCCCC(N)=O [Lauramide, reference compound] |  | 0.3 | 0.7 | 0 | 0 | 0.3 |  |  | - |  | -
CCCCCCCC/C=C\CCCCCCCC(=O)O [Oleic acid] | 13.7 ug/disc | 0 | 0.8 | 2.5 | 4 | 7 |  |  |  |  | 
CCCCCCCCCCCCCCCC(N)=O [Palmitamide] | 15.6 ug/disc | 0 | 0 | 0.3 | 2.4 | 7.7 |  |  |  |  | 
CCCCCCCCCCCCCCCC(=O)O [Palmitic acid] | 14.5 ug/disc | 0 | 0 | 0 | 3.2 | 7.6 |  |  |  |  | 
CCCCCC[C@@H](O)C/C=C\CCCCCCCC(=O)O [Ricinoleic acid] |  | 0 | 1.8 | 1.2 | 2.6 | 3.2 |  |  |  |  | 
CCCCCCCCCCCCCCCCCC(N)=O [Stearamide] | 2.63 ug/disc | 0 | 2 | 7.6 | 7.7 | 6.9 |  |  |  |  | 
CCCCCCCCCCCCCCCCCC(=O)O [Stearic acid] | 7.14 ug/disc | 0 | 0 | 1.8 | 6.8 | 9.4 |  |  |  |  | 
CCCCCCCC/C=C\CCCCCCCCCCCC(=O)NCC(=O)O [carboxymethyl amine] | 6.58 ug/disc | 0 | 0 | 2.6 | 7.0 | 10 |  |  |  |  | 
CCCCCCCC/C=C\CCCCCCCCCCCC(=O)Nc1cccc(C(=O)O)c1 [m-aminobenzoic acid, N-ercoyl-3-aminobenzoic acid] | 1.28 ug/disc | 2.0 | 6.0 | 7.4 | 10 | 10 |  |  |  |  | 
CCCCCCCC/C=C\CCCCCCCCCCCC(=O)N1CCC[C@H]1C(=O)OC [proline methylester, N-erucoyl-proline methyl ester] | 4.00 ug/disc | 0.8 | 2.3 | 5.0 | 7.8 | 10 |  |  |  |  | 
